Experimental data reported in US20250241978A1, “PEPTIDE FOR PREVENTION OR TREATMENT OF COVID-19” (priority 2020, published 2025).

Tested on: severe COVID-19 patients
Experiment: Observation of seriously ill COVID-19 ICU patients treated with orally inhaled solnatide (Example 2)
Procedure: Community patients with serious health conditions were admitted to a local hospital for examination. In some of these patients, COVID-19 was confirmed by positive testing for SARS-CoV-2 by nasopharyngeal swab and real-time RT-PCR.
Following worsening of conditions, seriously ill COVID-19 patients were admitted to the ICU of the hospital.
These patients were treated with placebo only in addition to standard critical care treatment and life support.
During an observation period of 7 days, patient-centred clinical parameters which reflect the severity of COVID-19 were recorded.
The SOFA score was used to track a patient's status during the stay in an intensive care unit (ICU) to determine the extent of the patient's organ function or rate of failure.

cyclo-CGQRETPEGAEAKPWYC [solnatide]
mean SOFA score at end of treatment period (COVID-19 ICU patients, orally inhaled solnatide twice daily plus standard critical care, after 7-day treatment period, FIG. 1): 8 | mean SOFA score at start of treatment period (COVID-19 ICU patients, orally inhaled solnatide twice daily plus standard critical care, start of 7-day treatment, FIG. 1): 12 | mean body temperature, change during treatment (COVID-19 ICU patients, orally inhaled solnatide twice daily, 7-day treatment period, elevated at initiation, FIG. 3): decreased | mean dynamic lung compliance at end of treatment period (COVID-19 ICU patients, orally inhaled solnatide twice daily, after 7-day treatment period, FIG. 2): 50 mL/cm H2O | mean dynamic lung compliance at start of treatment period (COVID-19 ICU patients, orally inhaled solnatide twice daily, start of 7-day treatment, FIG. 2): approx. 35 mL/cm H2O | patients who died within 28 days after onset of COVID-19 symptoms (severe COVID-19 patients treated with solnatide, comparator cohort: 3 patients died): none
